# According to patent US20130165450A1, “Novel Thiazol-Carboximide Derivatives as PDK1 Inhibitors” (priority 2010, published 2013):
# Biological target: T1, recombinant human PDK1 (amino acids 51-556) (Homo sapiens, UniProt O15530)
# T1 construct: containing amino acids 51-556 of the human PDK1 enzyme; made in house
# T1 sequence (O15530 51-556): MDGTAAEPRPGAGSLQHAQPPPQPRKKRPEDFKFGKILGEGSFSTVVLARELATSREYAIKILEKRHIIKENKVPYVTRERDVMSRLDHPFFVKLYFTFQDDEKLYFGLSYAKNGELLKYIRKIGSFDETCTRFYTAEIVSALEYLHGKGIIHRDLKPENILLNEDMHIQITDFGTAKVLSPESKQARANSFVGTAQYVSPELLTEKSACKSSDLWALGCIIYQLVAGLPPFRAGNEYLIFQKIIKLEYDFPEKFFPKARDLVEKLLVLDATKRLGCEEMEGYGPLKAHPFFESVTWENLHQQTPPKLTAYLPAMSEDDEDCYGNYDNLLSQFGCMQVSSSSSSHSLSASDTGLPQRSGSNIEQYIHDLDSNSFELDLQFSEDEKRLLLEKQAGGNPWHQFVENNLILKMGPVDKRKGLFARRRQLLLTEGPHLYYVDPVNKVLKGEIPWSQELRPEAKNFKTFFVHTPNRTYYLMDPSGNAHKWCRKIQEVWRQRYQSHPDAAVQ
# Assay: PDK1 IMAP fluorescence polarization kinase assay
# Format: biochemical
# Details: 10 nM PDK1, 100 nM peptide substrate, 100 nM PIFtide, 2.5 uM ATP, 1.5 hours; rated A-D
row,SMILES,IC50
1,"N[C@@H]1CCCN(c2c(F)cccc2NC(=O)c2csc(-c3cnn(Cc4ccccc4OC(F)(F)F)c3)n2)C1 [Compound 33, N-[2-(3(R)-amino-1-piperidinyl)-3-fluorophenyl]-2-[1-[[2-(trifluoromethoxy)phenyl]methyl]-1H-pyrazol-4-yl]-4-thiazolecarboxamide]",> 1000 nM
2,"N[C@@H]1CCCN(c2c(F)cccc2NC(=O)c2csc(-c3cnn(Cc4c(F)cccc4C(F)(F)F)c3)n2)C1 [Compound 35, N-[2-(3(R)-amino-1-piperidinyl)-3-fluorophenyl]-2-[1-[[2-fluoro-6-(trifluoromethyl)phenyl]methyl]-1H-pyrazol-4-yl]-4-thiazolecarboxamide]",> 1000 nM
3,"N[C@@H]1CCCN(c2c(F)cccc2NC(=O)c2csc(-c3cnn(Cc4ccccc4SC(F)(F)F)c3)n2)C1 [Compound 37, N-[2-(3(R)-amino-1-piperidinyl)-3-fluorophenyl]-2-[1-[[2-[(trifluoromethyl)thio]phenyl]methyl]-1H-pyrazol-4-yl]-4-thiazolecarboxamide]",> 1000 nM
4,"N[C@@H]1CCCN(c2c(F)cccc2NC(=O)c2csc(-c3cnn(CCOCc4ccccc4)c3)n2)C1 [Compound 40, N-[2-(3(R)-amino-1-piperidinyl)-3-fluorophenyl]-2-[1-[2-(phenylmethoxy)ethyl]-1H-pyrazol-4-yl]-4-thiazolecarboxamide]",251 to 1000 nM
5,"N[C@@H]1CCCN(c2c(F)cccc2NC(=O)c2csc(-c3cnn(CCCOc4ccccc4)c3)n2)C1 [Compound 43, N-[2-(3(R)-amino-1-piperidinyl)-3-fluorophenyl]-2-[1-(3-phenoxypropyl)-1H-pyrazol-4-yl]-4-thiazolecarboxamide]",> 1000 nM
6,"COC(=O)c1cccc(F)c1Cn1cc(-c2nc(C(=O)Nc3cccc(F)c3N3CCC[C@@H](N)C3)cs2)cn1 [Compound 45, methyl 2-[[4-[4-[[[2-(3(R)-amino-1-piperidinyl)-3-fluorophenyl]amino]carbonyl]-2-thiazolyl]-1H-pyrazol-1-yl]methyl]-3-fluorobenzoate]",251 to 1000 nM
7,"N[C@@H]1CCCN(c2c(F)cccc2NC(=O)c2csc(-c3cnn(CC4CCNCC4)c3)n2)C1 [Compound 47, N-[2-(3(R)-amino-1-piperidinyl)-3-fluorophenyl]-2-[1-(4-piperidinylmethyl)-1H-pyrazol-4-yl]-4-thiazolecarboxamide]",> 1000 nM
8,"N[C@@H]1CCCN(c2c(F)cccc2NC(=O)c2csc(-c3cnn(Cc4ccccc4Br)c3)n2)C1 [Compound 49, N-[2-(3(R)-amino-1-piperidinyl)-3-fluorophenyl]-2-[1-[(2-bromophenyl)methyl]-1H-pyrazol-4-yl]-4-thiazolecarboxamide]",251 to 1000 nM
9,"N[C@@H]1CCCN(c2c(F)cccc2NC(=O)c2csc(-c3cnn(Cc4ccccc4-c4cn[nH]c4)c3)n2)C1 [Compound 50, N-[2-(3(R)-amino-1-piperidinyl)-3-fluorophenyl]-2-[1-[[2-(1h-pyrazol-4-yl)phenyl]methyl]-1H-pyrazol-4-yl]-4-thiazolecarboxamide]",> 1000 nM
10,"NCc1ccccc1Cn1cc(-c2nc(C(=O)Nc3cccc(F)c3N3CCC[C@@H](N)C3)cs2)cn1 [Compound 51, 2-[1-[[2-(aminomethyl)phenyl]methyl]-1H-pyrazol-4-yl]-N-[2-(3(R)-amino-1-piperidinyl)-3-fluorophenyl]-4-thiazolecarboxamide]",251 to 1000 nM

# Continued, values first:
row,IC50,SMILES
1,51 to 250 nM,"N[C@@H]1CCCN(c2c(F)cccc2NC(=O)c2csc(-c3cnn(Cc4cccnc4)c3)n2)C1 [Compound 31, N-[2-(3(R)-amino-1-piperidinyl)-3-fluorophenyl]-2-[1-(3-pyridinylmethyl)-1H-pyrazol-4-yl]-4-thiazolecarboxamide]"
2,51 to 250 nM,"N[C@@H]1CCCN(c2c(F)cccc2NC(=O)c2csc(-c3cnn(Cc4c(F)cccc4F)c3)n2)C1 [Compound 32, N-[2-(3(R)-amino-1-piperidinyl)-3-fluorophenyl]-2-[1-[(2,6-difluorophenyl)methyl]-1H-pyrazol-4-yl]-4-thiazolecarboxamide]"
3,51 to 250 nM,"Nc1ccc(N2CCC3(CC2)OCCO3)c(NC(=O)c2csc(-c3cnn(Cc4cccs4)c3)n2)c1 [Compound 34, N-[5-amino-2-(1,4-dioxa-8-azaspiro[4.5]dec-8-yl)phenyl]-2-[1-(2-thienylmethyl)-1H-pyrazol-4-yl]-4-thiazolecarboxamide]"
4,251 to 1000 nM,"N[C@@H]1CCCN(c2c(F)cccc2NC(=O)c2csc(-c3cnn(Cc4ccccc4OC(F)F)c3)n2)C1 [Compound 36, N-[2-(3(R)-amino-1-piperidinyl)-3-fluorophenyl]-2-[1-[[2-(difluoromethoxy)phenyl]methyl]-1H-pyrazol-4-yl]-4-thiazolecarboxamide]"
5,251 to 1000 nM,"N[C@@H]1CCCN(c2c(F)cccc2NC(=O)c2csc(-c3cnn(Cc4c(F)cc(F)cc4F)c3)n2)C1 [Compound 38, N-[2-(3(R)-amino-1-piperidinyl)-3-fluorophenyl]-2-[1-[(2,4,6-trifluorophenyl)methyl]-1H-pyrazol-4-yl]-4-thiazolecarboxamide]"
6,251 to 1000 nM,"O=C(Nc1ccccc1N1CCNCC1)c1csc(-c2cnn(Cc3cc(F)ccc3F)c2)n1 [Compound 39, 2-[1-[(2,5-difluorophenyl)methyl]-1H-pyrazol-4-yl]-N-[2-(1-piperazinyl)phenyl]-4-thiazolecarboxamide]"
7,51 to 250 nM,"N[C@@H]1CCCN(c2c(F)cccc2NC(=O)c2csc(-c3cnn(Cc4ccccc4CO)c3)n2)C1 [Compound 42, N-[2-(3(R)-amino-1-piperidinyl)-3-fluorophenyl]-2-[1-[[2-(hydroxymethyl)phenyl]methyl]-1H-pyrazol-4-yl]-4-thiazolecarboxamide]"
8,51 to 250 nM,"N[C@@H]1CCCN(c2c(F)cccc2NC(=O)c2csc(-c3cnn(Cc4c(F)cccc4CO)c3)n2)C1 [Compound 46, N-[2-(3(R)-amino-1-piperidinyl)-3-fluorophenyl]-2-[1-[[2-fluoro-6-(hydroxymethyl)phenyl]methyl]-1H-pyrazol-4-yl]-4-thiazolecarboxamide]"
9,51 to 250 nM,"N[C@@H]1CCCN(c2c(F)cccc2NC(=O)c2csc(-c3cnn(Cc4cccc(F)c4F)c3)n2)C1 [Compound 52, N-[2-(3(R)-amino-1-piperidinyl)-3-fluorophenyl]-2-[1-[(2,3-difluorophenyl)methyl]-1H-pyrazol-4-yl]-4-thiazolecarboxamide]"
